Test results: ChEMBL document CHEMBL1201862, “PubChem BioAssay data set” (2004)
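Where inhibition never reached the appropriate level, the endpoint shown equals the highest concentration tested. Otherwise, values were interpolated linearly from a five-concentration, 48-hour dose response in 96-well plates. GI50 is the concentration that inhibits growth by half.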 Activity calls are given as the source filed them. Cut-off read from the data, not from the text of the source: active = GI50 up to about 1.1 µM and inactive = higher.

Tests used:
Assay in all cases: NCI-60 cell line screen, 48 h
786-0 = system: 786-0
A498 = system: A498
A549 = system: A549
ACHN = system: ACHN
BT-549 = system: BT-549
CAKI-1 = system: CAKI-1
CCRF-CEM = system: CCRF-CEM
COLO 205 = system: COLO 205
DU-145 = system: DU-145
EKVX = system: EKVX
HCT-116 = system: HCT-116
HCT-15 = system: HCT-15
HL-60 = system: HL-60
HOP-92 = system: HOP-92
HT-29 = system: HT-29
Hs-578T = system: Hs-578T
IGROV-1 = system: IGROV-1
K562 = system: K562
KM12 = system: KM12
M14 = system: M14
MDA-MB-231 = system: MDA-MB-231
MDA-MB-435 = system: MDA-MB-435
MOLT-4 = system: MOLT-4
Malme-3M = system: Malme-3M
NCI-H23 = system: NCI-H23
NCI-H460 = system: NCI-H460
NCI-H522 = system: NCI-H522
NCI/ADR-RES = system: NCI/ADR-RES
OVCAR-4 = system: OVCAR-4
OVCAR-5 = system: OVCAR-5
OVCAR-8 = system: OVCAR-8
PC-3 = system: PC-3
RPMI-8226 = system: RPMI-8226
RXF 393 = system: RXF 393
SF-268 = system: SF-268
SF-295 = system: SF-295
SF-539 = system: SF-539
SK-MEL-28 = system: SK-MEL-28
SK-MEL-2 = system: SK-MEL-2
SK-MEL-5 = system: SK-MEL-5
SK-OV-3 = system: SK-OV-3
SN12C = system: SN12C
SNB-19 = system: SNB-19
SNB-75 = system: SNB-75
SR = system: SR
SW-620 = system: SW-620
T47D = system: T47D
TK-10 = system: TK-10
U-251 = system: U-251
UACC-257 = system: UACC-257
UACC-62 = system: UACC-62
UO-31 = system: UO-31
HCC 2998 = system: HCC 2998
HOP-62 = system: HOP-62
LOX IMVI = system: LOX IMVI
MCF7 = system: MCF7
NCI-H226 = system: NCI-H226
OVCAR-3 = system: OVCAR-3

SMILES: FC(F)=C(c1ccc(-c2ccc(Cl)cc2)cc1)C(F)(F)F
- GI50 (786-0): 19.8 µM (inactive)
- GI50 (A498): 16.8 µM (inactive)
- GI50 (A549): 17.9 µM (inactive)
- GI50 (ACHN): 17.3 µM (inactive)
- GI50 (BT-549): 18.2 µM (inactive)
- GI50 (CAKI-1): 19.8 µM (inactive)
- GI50 (CCRF-CEM): 26.8 µM (inactive)
- GI50 (COLO 205): 17.9 µM (inactive)
- GI50 (DU-145): 18.7 µM (inactive)
- GI50 (EKVX): 19.7 µM (inactive)
- GI50 (HCT-116): 17.5 µM (inactive)
- GI50 (HCT-15): 20.4 µM
- GI50 (HL-60): 45.3 µM (inactive)
- GI50 (HOP-92): 15.1 µM (inactive)
- GI50 (HT-29): 25.6 µM (inactive)
- GI50 (Hs-578T): 26.1 µM (inactive)
- GI50 (IGROV-1): 17 µM (inactive)
- GI50 (K562): 26.2 µM (inactive)
- GI50 (KM12): 19.3 µM (inactive)
- GI50 (M14): 19.7 µM (inactive)
- GI50 (MDA-MB-231): 17.7 µM (inactive)
- GI50 (MDA-MB-435): 20.2 µM (inactive)
- GI50 (MOLT-4): 32.3 µM (inactive)
- GI50 (Malme-3M): 17.2 µM (inactive)
- GI50 (NCI-H23): 17.5 µM (inactive)
- GI50 (NCI-H460): 17.7 µM (inactive)
- GI50 (NCI-H522): 20.3 µM (inactive)
- GI50 (NCI/ADR-RES): 26.1 µM (inactive)
- GI50 (OVCAR-4): 18.5 µM (inactive)
- GI50 (OVCAR-5): 17.5 µM (inactive)
- GI50 (OVCAR-8): 24.3 µM (inactive)
- GI50 (PC-3): 17.3 µM (inactive)
- GI50 (RPMI-8226): 23.3 µM (inactive)
- GI50 (RXF 393): 20.6 µM (inactive)
- GI50 (SF-268): 23.9 µM (inactive)
- GI50 (SF-295): 22.5 µM (inactive)
- GI50 (SF-539): 20.7 µM (inactive)
- GI50 (SK-MEL-28): 12.4 µM (inactive)
- GI50 (SK-MEL-2): 23.7 µM (inactive)
- GI50 (SK-MEL-5): 18.2 µM (inactive)
- GI50 (SK-OV-3): 21 µM (inactive)
- GI50 (SN12C): 20.3 µM (inactive)
- GI50 (SNB-19): 19.3 µM (inactive)
- GI50 (SNB-75): 11 µM (inactive)
- GI50 (SR): 23.3 µM (inactive)
- GI50 (SW-620): 20 µM (inactive)
- GI50 (T47D): 28.2 µM (inactive)
- GI50 (TK-10): 15.8 µM (inactive)
- GI50 (U-251): 16.7 µM (inactive)
- GI50 (UACC-257): 20 µM (inactive)
- GI50 (UACC-62): 19 µM (inactive)
- GI50 (UO-31): 16.4 µM (inactive)

SMILES: Cc1ccccc1N1C(N)=C(C#N)C(C#N)(C#N)C1c1ccccc1 (configuration not stated)
- GI50 (786-0): 17.3 µM (inactive)
- GI50 (A498): 16.6 µM (inactive)
- GI50 (A549): 26.1 µM (inactive)
- GI50 (ACHN): 16.1 µM (inactive)
- GI50 (BT-549): 13.6 µM (inactive)
- GI50 (CAKI-1): 25.9 µM (inactive)
- GI50 (CCRF-CEM): 14.7 µM (inactive)
- GI50 (COLO 205): 17.9 µM (inactive)
- GI50 (DU-145): 16.7 µM (inactive)
- GI50 (EKVX): 17.9 µM (inactive)
- GI50 (HCC 2998): 16.8 µM (inactive)
- GI50 (HCT-116): 18 µM (inactive)
- GI50 (HCT-15): 16.6 µM
- GI50 (HL-60): 18.5 µM (inactive)
- GI50 (HOP-62): 19.4 µM (inactive)
- GI50 (HOP-92): 13.8 µM (inactive)
- GI50 (HT-29): 18.4 µM (inactive)
- GI50 (Hs-578T): 20.1 µM (inactive)
- GI50 (IGROV-1): 17.9 µM (inactive)
- GI50 (KM12): 16.8 µM (inactive)
- GI50 (LOX IMVI): 17.7 µM (inactive)
- GI50 (M14): 23.4 µM (inactive)
- GI50 (MCF7): 23.6 µM (inactive)
- GI50 (MDA-MB-231): 13.3 µM (inactive)
- GI50 (MDA-MB-435): 17.7 µM (inactive)
- GI50 (MOLT-4): 15.6 µM (inactive)
- GI50 (Malme-3M): 16.4 µM (inactive)
- GI50 (NCI-H226): 20.7 µM (inactive)
- GI50 (NCI-H23): 19.4 µM (inactive)
- GI50 (NCI-H522): 15.3 µM (inactive)
- GI50 (NCI/ADR-RES): 20.7 µM (inactive)
- GI50 (OVCAR-3): 17.2 µM (inactive)
- GI50 (OVCAR-4): 19 µM (inactive)
- GI50 (OVCAR-5): 21.9 µM (inactive)
- GI50 (OVCAR-8): 20.9 µM (inactive)
- GI50 (PC-3): 24.6 µM (inactive)
- GI50 (RPMI-8226): 19.2 µM (inactive)
- GI50 (RXF 393): 15.3 µM (inactive)
- GI50 (SF-268): 20.9 µM (inactive)
- GI50 (SF-295): 24.7 µM (inactive)
- GI50 (SF-539): 21.2 µM (inactive)
- GI50 (SK-MEL-28): 17.6 µM (inactive)
- GI50 (SK-MEL-2): 25.9 µM (inactive)
- GI50 (SK-MEL-5): 15.8 µM (inactive)
- GI50 (SK-OV-3): 31.3 µM (inactive)
- GI50 (SN12C): 23.3 µM (inactive)
- GI50 (SNB-19): 20 µM (inactive)
- GI50 (SNB-75): 26 µM (inactive)
- GI50 (SR): 23.9 µM (inactive)
- GI50 (SW-620): 16.3 µM (inactive)
- GI50 (T47D): 12.5 µM (inactive)
- GI50 (TK-10): 14.6 µM (inactive)
- GI50 (U-251): 16.7 µM (inactive)
- GI50 (UACC-257): 17 µM (inactive)
- GI50 (UACC-62): 17.9 µM (inactive)
- GI50 (UO-31): 16.8 µM (inactive)

SMILES: CC(C)C/C=C/C1=NN(c2cccc(S(=O)(=O)O)c2)C2(C1)SCC(=O)N2c1nc2ccccc2s1 (configuration not stated)
- GI50 (786-0): 21.3 µM (inactive)
- GI50 (A498): 27.7 µM (inactive)
- GI50 (A549): 89.1 µM (inactive)
- GI50 (ACHN): 72.4 µM (inactive)
- GI50 (BT-549): 83.2 µM (inactive)
- GI50 (CAKI-1): 66.8 µM (inactive)
- GI50 (CCRF-CEM): 23.3 µM (inactive)
- GI50 (COLO 205): > 100 µM (inactive)
- GI50 (DU-145): 44.2 µM (inactive)
- GI50 (EKVX): > 100 µM (inactive)
- GI50 (HCC 2998): > 100 µM (inactive)
- GI50 (HCT-116): 67.8 µM (inactive)
- GI50 (HCT-15): 91.6 µM
- GI50 (HL-60): 29.9 µM (inactive)
- GI50 (HOP-92): > 100 µM (inactive)
- GI50 (HT-29): > 100 µM (inactive)
- GI50 (Hs-578T): 56.8 µM (inactive)
- GI50 (IGROV-1): 36.8 µM (inactive)
- GI50 (K562): 51.4 µM (inactive)
- GI50 (KM12): 36.7 µM (inactive)
- GI50 (LOX IMVI): 26.8 µM (inactive)
- GI50 (M14): > 100 µM (inactive)
- GI50 (MCF7): 30.5 µM (inactive)
- GI50 (MDA-MB-231): 38.9 µM (inactive)
- GI50 (MDA-MB-435): 31.1 µM (inactive)
- GI50 (MOLT-4): 33.8 µM (inactive)
- GI50 (Malme-3M): 93.1 µM (inactive)
- GI50 (NCI-H226): 29.2 µM (inactive)
- GI50 (NCI-H23): 99.5 µM (inactive)
- GI50 (NCI-H460): 38 µM (inactive)
- GI50 (NCI-H522): 19.8 µM (inactive)
- GI50 (NCI/ADR-RES): 71.6 µM (inactive)
- GI50 (OVCAR-4): 61.7 µM (inactive)
- GI50 (OVCAR-5): > 100 µM (inactive)
- GI50 (OVCAR-8): 66.2 µM (inactive)
- GI50 (PC-3): 40 µM (inactive)
- GI50 (RPMI-8226): 21.6 µM (inactive)
- GI50 (RXF 393): 98.4 µM (inactive)
- GI50 (SF-268): 37.2 µM (inactive)
- GI50 (SF-539): 61.4 µM (inactive)
- GI50 (SK-MEL-28): > 100 µM (inactive)
- GI50 (SK-MEL-2): 35.2 µM (inactive)
- GI50 (SK-MEL-5): 64 µM (inactive)
- GI50 (SN12C): 31.9 µM (inactive)
- GI50 (SNB-19): 50 µM (inactive)
- GI50 (SNB-75): 97.5 µM (inactive)
- GI50 (SR): 25.2 µM (inactive)
- GI50 (SW-620): 96.6 µM (inactive)
- GI50 (T47D): 5.43 µM (inactive)
- GI50 (TK-10): 34.4 µM (inactive)
- GI50 (U-251): 30.1 µM (inactive)
- GI50 (UACC-257): > 100 µM (inactive)
- GI50 (UACC-62): 48.4 µM (inactive)
- GI50 (UO-31): 50.1 µM (inactive)
